Measured values taken from publication PMC12040169 (PLOS Biology, 2025).

Experiment: in vitro
Settings: human, hela cells, % viability

SMILES | viability at 28.5 h, 10 µM [%]
O=S(=O)(Nc1ccc2nsnc2c1)c1cccc(C(F)(F)F)c1 [CBK062221] | 106
Cc1noc(C)c1S(=O)(=O)Nc1ccc2nsnc2c1 [CBK062223] | 90.4
Cc1c(S(=O)(=O)Nc2ccc3nsnc3c2)cnn1-c1ccccc1 [CBK062229] | 87.6
O=S(=O)(Nc1ccc2nsnc2c1)c1ccc(Br)cc1C(F)(F)F [CBK062233] | 115
Cc1cc(CNS(=O)(=O)c2c(C)noc2C)no1 [CBK062261] | 91.4
Cc1cc(CNS(=O)(=O)c2cccc3nonc23)no1 [CBK062263] | 106
Cc1cc(CNS(=O)(=O)c2ccc(-c3ccon3)s2)no1 [CBK062276] | 103
Cc1nn(C)c(Cl)c1S(=O)(=O)Nc1cccnc1N1CCOCC1 [CBK062286] | 99.5
O=S(=O)(Nc1cccnc1N1CCOCC1)c1cc(C(F)(F)F)cc(C(F)(F)F)c1 [CBK062306] | 122
Cc1cnc(CNS(=O)(=O)c2cnn(-c3ccccc3)c2C)cn1 [CBK062335] | 96.5
Cc1cc(OC(F)(F)F)ccc1NS(=O)(=O)c1cnn(-c2ccccc2)c1C [CBK062354] | 91.1
O=S(=O)(Nc1nnn[nH]1)c1cccc2nsnc12 [CBK062379] | 99
O=S(=O)(Nc1nnn[nH]1)c1cccc2nonc12 [CBK062380] | 104
O=S(=O)(Nc1nnn[nH]1)c1ccc(-c2ccccc2)cc1 [CBK062381] | 99.7
O=S(=O)(Nc1nnn[nH]1)c1ccccc1Br [CBK062386] | 96.3
O=S(=O)(Nc1nnn[nH]1)c1ccc(Cl)c(Cl)c1 [CBK062387] | 106
O=S(=O)(Nc1nnn[nH]1)c1ccc(Br)cc1C(F)(F)F [CBK062388] | 104
Cn1nc(-c2ccc(S(=O)(=O)Nc3nnn[nH]3)s2)cc1C(F)(F)F [CBK062390] | 94.4
Cc1c(S(=O)(=O)Nc2nnn[nH]2)sc2ccc(Cl)cc12 [CBK062392] | 91.7
O=S(=O)(Nc1nnn[nH]1)c1ccc(-c2cc(C(F)(F)F)on2)s1 [CBK062393] | 96.9
O=S(=O)(c1csc2ccccc12)N1CCOCC1 [CBK062401] | 90.7
CN1CCN(S(=O)(=O)c2ccc(Oc3ccccc3)cc2)CC1 [CBK062430] | 113

SMILES | viability at 28.5 h, 10 µM [%]
CN1CCN(S(=O)(=O)c2ccc(N3CCOCC3)nc2)CC1 [CBK062434] | 87.9
CN1CCN(S(=O)(=O)c2ccc(Br)cc2C(F)(F)F)CC1 [CBK062437] | 90.7
CC(CCCC(C)(C)O)NS(=O)(=O)c1ccc(-c2ccon2)s1 (stereo not drawn) [CBK062466] | 93.8
Cc1c(S(=O)(=O)NC(C)CCCC(C)(C)O)sc2ccc(Cl)cc12 (stereo not drawn) [CBK062467] | 93.5
O=c1ccc2cc(S(=O)(=O)Nc3ccc4[nH]ccc4c3)ccc2o1 [CBK062503] | 54.8
Cc1noc(C)c1S(=O)(=O)Nc1ccc2[nH]ncc2c1 [CBK062518] | 87.8
O=S(=O)(Nc1ccc2[nH]ncc2c1)c1ccc(Br)cc1C(F)(F)F [CBK062529] | 100
O=S(=O)(Nc1nnn[nH]1)c1csc2ccccc12 [CBK062590] | 103
COc1ccc(CCNC(=O)[C@@H]2Cc3c([nH]c4ccccc34)[C@]3(CCN(Cc4ccccc4)C3)N2)cc1OC [CBK062620] | 114
Cn1c(-c2nonc2N)nc2ccccc21 [CBK062642] | 94.5
O=C(Nc1nonc1-c1nc2ccccc2n1CCOC(=O)c1ccc(F)cc1)c1ccc(F)cc1 [CBK062653] | 102
Nc1nonc1-c1nc2ccccc2[nH]1 [CBK062657] | 89.4
Cc1nc2n(CC#N)c3ccccc3n2n1 [CBK062670] | 99.7
Cn1nccc1NS(=O)(=O)c1cc(C(=O)O)c(Cl)cc1F [CBK062712] | 106
CS(=O)(=O)Nc1ccc2[nH]ccc2c1 [CBK062728] | 91.2
CC(C)CN1CCN(S(=O)(=O)c2ccc(C(F)(F)F)cc2Cl)CC1 [CBK062740] | 113
CCOc1ccc(S(=O)(=O)N2CCCN(Cc3cccc(C(F)(F)F)c3)CC2)c2cccnc12 [CBK062760] | 84.3
CC(=O)c1ccc(CN2CCCN(S(=O)(=O)c3ccc(C(=O)c4ccccc4)cc3)CC2)cc1 [CBK062764] | 109
COC(=O)c1cc(CN2CCCN(S(=O)(=O)c3ccc(C(=O)c4ccccc4)cc3)CC2)cn1C [CBK062770] | 97.2
CCOc1ccc(S(=O)(=O)N2CCN(Cc3cc(F)c(F)c(F)c3)CC2)c2cccnc12 [CBK062795] | 95.4
COC(=O)CCc1ccc(S(=O)(=O)N2CCN(Cc3csc(-c4ccccc4)n3)CC2)cc1 [CBK062812] | 91.8
CCC(C)(C)c1ccc(S(=O)(=O)N2CCN(Cc3ccc(C(C)=O)cc3)CC2)cc1 [CBK062826] | 95.1

Same assay, conditions: human, hela cells, % viability, bulk resorufin, single well

SMILES | viability at 28.5 h, 10 µM [%]
Cc1nocc1C(=O)N1CCC2(CC1)OCc1ccccc1O2 [CBK061470] | 105
